Results as given in ChEMBL document CHEMBL2401713, “Discovery of bufadienolides as a novel class of ClC-3 chloride channel activators with antitumor activities” (J Med Chem, 2013).
pIC50: −log10 of the molar value. Calls of active or inactive are those of the source. No cut-off for these calls is given here.

Tests used:
H22 = experiment: Cytotoxicity against mouse H22 cells expressing mutated alpha-1 Na+/K+-ATPase assessed as growth inhibition after 48 hrs by MTT assay; format: functional, cell-based; settings: H22, 48 h
CCRF S-180 = experiment: Cytotoxicity against mouse S180 cells expressing mutated alpha-1 Na+/K+-ATPase assessed as growth inhibition after 48 hrs by MTT assay; format: functional, cell-based; settings: CCRF S-180, 48 h
HepG2 [1] = experiment: Cytotoxicity against adriamycin-resistant human HepG2 cells assessed as growth inhibition after 48 hrs by MTT assay; format: functional, cell-based; settings: HepG2, 48 h
[2] = Cytotoxicity against human CNE2Z cells assessed as growth inhibition after 48 hrs by MTT assay; format: functional, cell-based
HepG2 [3] = experiment: Cytotoxicity against human HepG2 cells assessed as growth inhibition after 48 hrs by MTT assay; format: functional, cell-based; settings: HepG2, 48 h
[4] = Cytotoxicity against human CNE1 cells assessed as growth inhibition after 48 hrs by MTT assay; format: functional, cell-based; settings: CNE
[5] = molecular target: T1, H(+)/Cl(-) exchange transporter 3 (Homo sapiens) (UniProt P51790); experiment: Activation of ClC-3 in human CNE2Z cells assessed as increase in chloride current density at +80mV holding potential at 1 uM by whole-cell patch clamp method relative to vehicle-treated control; format: cell-based
T1 sequence (whole entry): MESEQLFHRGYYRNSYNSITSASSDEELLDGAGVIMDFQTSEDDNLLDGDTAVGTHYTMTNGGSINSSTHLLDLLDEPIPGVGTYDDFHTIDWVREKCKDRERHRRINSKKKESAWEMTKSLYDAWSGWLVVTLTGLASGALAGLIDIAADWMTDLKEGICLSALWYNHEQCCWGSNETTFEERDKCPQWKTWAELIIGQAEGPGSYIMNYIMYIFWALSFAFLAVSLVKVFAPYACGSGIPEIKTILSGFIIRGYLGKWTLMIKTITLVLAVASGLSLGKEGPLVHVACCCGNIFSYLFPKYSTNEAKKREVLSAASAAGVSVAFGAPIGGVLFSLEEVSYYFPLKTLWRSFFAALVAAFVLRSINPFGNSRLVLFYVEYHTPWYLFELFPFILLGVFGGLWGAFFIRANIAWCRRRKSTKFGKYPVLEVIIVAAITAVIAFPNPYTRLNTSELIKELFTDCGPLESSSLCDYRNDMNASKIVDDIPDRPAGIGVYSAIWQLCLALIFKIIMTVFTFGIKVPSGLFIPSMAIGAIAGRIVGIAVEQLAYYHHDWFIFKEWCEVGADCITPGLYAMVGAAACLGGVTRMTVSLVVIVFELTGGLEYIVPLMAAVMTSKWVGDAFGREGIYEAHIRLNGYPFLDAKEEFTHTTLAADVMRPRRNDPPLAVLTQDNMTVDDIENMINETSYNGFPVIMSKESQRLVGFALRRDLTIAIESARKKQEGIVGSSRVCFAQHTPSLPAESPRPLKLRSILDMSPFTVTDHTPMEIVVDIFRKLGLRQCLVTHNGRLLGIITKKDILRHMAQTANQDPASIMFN

[6] = molecular target: T1, H(+)/Cl(-) exchange transporter 3 (Homo sapiens); experiment: Activation of ClC-3 in human CNE2Z cells assessed as increase in chloride current in outward and inward direction at +80mV holding potential at 1 uM by whole-cell patch clamp method; format: cell-based
[7] = Cell cycle arrest in human CNE2Z cells assessed as accumulation at sub-G1 phase at 50 uM after 24 hrs by propidium iodide staining-based flow cytometric analysis in presence of ClC-3 siRNA (reference value: 1.3%); format: functional
[8] = Cell cycle arrest in human CNE2Z cells assessed as accumulation at sub-G1 phase at 50 uM after 24 hrs by propidium iodide staining-based flow cytometric analysis in presence of NPPB (reference value: 2%); format: functional
[9] = Cell cycle arrest in human CNE2Z cells assessed as accumulation at sub-G1 phase at 50 uM after 24 hrs by propidium iodide staining-based flow cytometric analysis in presence of tamoxifen (reference value: 1.5%); format: functional
[10] = Cell cycle arrest in human CNE2Z cells assessed as accumulation at sub-G1 phase at 50 uM after 24 hrs by propidium iodide staining-based flow cytometric analysis (reference value: 1.1%); format: functional
CNE2Z [11] = experiment: Induction of apoptosis in human CNE2Z cells assessed as activation of caspase-8 at 1 to 50 uM after 24 hrs by luminometric analysis; format: functional, cell-based
CNE2Z [12] = experiment: Induction of apoptosis in human CNE2Z cells assessed as activation of caspase-3/7 at 1 to 50 uM after 24 hrs by luminometric analysis; format: functional, cell-based
CNE2Z [13] = experiment: Induction of apoptosis in human CNE2Z cells assessed as increase in apoptotic cell level at 1 to 10 uM after 24 hrs by annexin V-FITC/propidium iodide staining-based flow cytometric analysis; format: functional
[14] = Cell cycle arrest in human CNE2Z cells assessed as accumulation at sub-G1 phase at 5 uM after 24 hrs by propidium iodide staining-based flow cytometric analysis in presence of ClC-3 siRNA (reference value: 1.3%); format: functional
[15] = Cell cycle arrest in human CNE2Z cells assessed as accumulation at sub-G1 phase at 1 uM after 24 hrs by propidium iodide staining-based flow cytometric analysis in presence of ClC-3 siRNA (reference value: 1.3%); format: functional
[16] = Cell cycle arrest in human CNE2Z cells assessed as accumulation at sub-G1 phase at 5 uM after 24 hrs by propidium iodide staining-based flow cytometric analysis in presence of NPPB (reference value: 2%); format: functional
[17] = Cell cycle arrest in human CNE2Z cells assessed as accumulation at sub-G1 phase at 1 uM after 24 hrs by propidium iodide staining-based flow cytometric analysis in presence of NPPB (reference value: 2%); format: functional
[18] = Cell cycle arrest in human CNE2Z cells assessed as accumulation at sub-G1 phase at 5 uM after 24 hrs by propidium iodide staining-based flow cytometric analysis in presence of tamoxifen (reference value: 1.5%); format: functional
[19] = Cell cycle arrest in human CNE2Z cells assessed as accumulation at sub-G1 phase at 1 uM after 24 hrs by propidium iodide staining-based flow cytometric analysis in presence of tamoxifen (reference value: 1.5%); format: functional
[20] = Cell cycle arrest in human CNE2Z cells assessed as accumulation at sub-G1 phase at 5 uM after 24 hrs by propidium iodide staining-based flow cytometric analysis (reference value: 1.1%); format: functional
[21] = Upregulation of ClC-3 protein expression in human CNE2Z cells after 24 hrs by Western blot analysis; format: functional, cell-based
[22] = Cell cycle arrest in human CNE2Z cells assessed as accumulation at sub-G1 phase at 1 uM after 24 hrs by propidium iodide staining-based flow cytometric analysis (reference value: 1.1%); format: functional
CNE2Z [23] = experiment: Induction of apoptosis in human CNE2Z cells assessed as expression of caspase-3 at 1 uM after 24 hrs by annexin V-FITC/propidium iodide staining-based flow cytometric analysis in presence of tamoxifen, NPPB, ClC-3 siRNA; format: functional, cell-based
CNE2Z [24] = experiment: Induction of apoptosis in human CNE2Z cells assessed as induction of PARP cleavage at 1 uM after 24 hrs by annexin V-FITC/propidium iodide staining-based flow cytometric analysis in presence of tamoxifen, NPPB, ClC-3 siRNA; format: functional, cell-based
CNE2Z [25] = experiment: Induction of apoptosis in human CNE2Z cells assessed as increase in apoptotic cell level at 1 to 10 uM after 24 hrs by annexin V-FITC/propidium iodide staining-based flow cytometric analysis in presence of tamoxifen, NPPB, ClC-3 siRNA; format: functional
CNE2Z [26] = experiment: Induction of apoptosis in human CNE2Z cells assessed as activation of caspase-3 at 1 uM after 24 hrs by annexin V-FITC/propidium iodide staining-based flow cytometric analysis; format: functional, cell-based
CNE2Z [27] = experiment: Induction of apoptosis in human CNE2Z cells assessed as induction of PARP cleavage at 1 uM after 24 hrs by annexin V-FITC/propidium iodide staining-based flow cytometric analysis; format: functional, cell-based
[28] = Cell cycle arrest in human CNE2Z cells assessed as accumulation at sub-G1 phase at 10 uM after 24 hrs by propidium iodide staining-based flow cytometric analysis in presence of ClC-3 siRNA (reference value: 1.3%); format: functional
[29] = Cell cycle arrest in human CNE2Z cells assessed as accumulation at sub-G1 phase at 10 uM after 24 hrs by propidium iodide staining-based flow cytometric analysis in presence of NPPB (reference value: 2%); format: functional
[30] = Cell cycle arrest in human CNE2Z cells assessed as accumulation at sub-G1 phase at 10 uM after 24 hrs by propidium iodide staining-based flow cytometric analysis in presence of tamoxifen (reference value: 1.5%); format: functional
[31] = Cell cycle arrest in human CNE2Z cells assessed as accumulation at sub-G1 phase at 10 uM after 24 hrs by propidium iodide staining-based flow cytometric analysis (reference value: 1.1%); format: functional
[32] = Cytotoxicity against SV40-transformed human NP69 cells assessed as cell viability after 48 hrs by MTT assay; format: cell-based; settings: NP69, 48 h

Row | Compound | pIC50 (H22) | pIC50 (CCRF S-180) | pIC50 (HepG2 [1]) | pIC50 [2] | pIC50 (HepG2 [3]) | pIC50 [4] | Activity [5] | also measured
1 | CC(=O)O[C@H]1[C@H]2O[C@]23[C@@H]2CC[C@@H]4C[C@@H](O)CC[C@]4(C)[C@H]2CC[C@]3(C)[C@H]1c1ccc(=O)oc1 [CINOBUFAGIN] | < 4.30 | < 4.30 | 5.77 | 6.41 | 5.63 | 6.51 | – | –
2 | C[C@]12CC[C@H](O)C[C@H]1CC[C@@H]1[C@@H]2CC[C@]2(C)[C@@H](c3ccc(=O)oc3)[C@@H](O)C[C@]12O [DESACETYLBUFOTALIN] | < 4.30 | < 4.30 | 5.59 | 5.75 | 5.45 | 5.31 | Active | –
3 | C[C@]12CC[C@H]3[C@@H](CC[C@@H]4C[C@@H](O)CC[C@@]43C=O)[C@]13O[C@@H]3C[C@@H]2c1ccc(=O)oc1 | < 4.30 | < 4.30 | < 4.00 | 4.58 | < 4.00 | 4.82 | – | –
4 | COC(=O)CCCCCCC(=O)O[C@H]1CC[C@@]2(C)[C@H](CC[C@@H]3[C@@H]2CC[C@]2(C)[C@@H](c4ccc(=O)oc4)CC[C@]32O)C1 | < 4.30 | < 4.30 | 5.62 | 5.54 | 5.50 | 5.76 | Active | –
5 | CC(=O)O[C@@H]1C[C@H](c2ccc(=O)oc2)[C@@]2(C)CC[C@H]3[C@@H](CC[C@@H]4C[C@@H](O)CC[C@@]43C)[C@@]12O | < 4.30 | < 4.30 | < 4.00 | < 4.00 | < 4.00 | < 4.00 | inactive | Activity [6]: inactive; Activity [7]: 3.4%; Activity [8]: 3.8%; Activity [9]: 3.9%; Activity [10]: 4%; Activity (CNE2Z [11]): inactive; Activity (CNE2Z [12]): inactive; Activity (CNE2Z [13]): inactive; Activity [14]: 3.3%; Activity [15]: 3%; Activity [16]: 3.5%; Activity [17]: 2.8%; Activity [18]: 3.5%; Activity [19]: 2.2%; Activity [20]: 3.1%; Activity [21]: inactive; Activity [22]: 1.3%
6 | C[C@]12CC[C@H](O)C[C@H]1CC[C@@H]1[C@@H]2CC[C@]2(C)[C@@H](c3ccc(=O)oc3)CC[C@]12O [BUFALIN] | < 4.30 | < 4.30 | 6.46 | 6.34 | 6.23 | 6.55 | – | Activity (CNE2Z [23]): inactive; Activity (CNE2Z [24]): inactive; Activity (CNE2Z [25]): inactive; Activity (CNE2Z [26]): Active; Activity (CNE2Z [27]): Active; Activity (CNE2Z [13]): 35.2%; Activity [28]: 40.9%; Activity [14]: 31.7%; Activity [15]: 21.5%; Activity [29]: 42.7%; Activity [16]: 33.9%; Activity [17]: 23.1%; Activity [30]: 43.9%; Activity [18]: 36.9%; Activity [19]: 26.5%; Activity [31]: 59.1%; Activity [20]: 50.5%; Activity [21]: Dose-dependent effect; pIC50 [32]: < 4.60; Activity [22]: 39.1%
7 | C[C@]12CC[C@H](OC(=O)CCCCCCC(=O)O)C[C@H]1CC[C@@H]1[C@@H]2CC[C@]2(C)[C@@H](c3ccc(=O)oc3)CC[C@]12O | < 4.30 | < 4.30 | < 4.00 | 5.13 | < 4.00 | 5.30 | – | –
